Assay results: patent US20230183193A1, “4-DIFLUOROMETHYL BENZOYL AMIDES WITH HERBICIDAL ACTION” (BAYER CROPSCIENCE AKTIENGESELLSCHAFT, priority 2017, published 2023)

Experiments:
Assay type in all cases: in vivo
Pharbitis purpureum = assay: Post-emergence herbicidal action, PHBPU; details: 80 g/ha, Table D
Description: (§1) Seeds of monocotyledonous and dicotyledonous weed and crop plants are laid out in sandy loam soil in wood-fiber pots, covered with soil and cultivated in a greenhouse under good growth conditions. 2 to 3 weeks after sowing, the test plants are treated at the one-leaf stage. The compounds of the invention, formulated in the form of wettable powders (WP) or as emulsion concentrates (EC), are then sprayed onto the green parts of the plants in the form of an aqueous suspension or emulsion at a water application rate equating to […], with addition of 0.2% wetting agent. After the test plants have been left to stand in the greenhouse under optimal growth conditions for about 3 weeks, the action of the preparations is assessed visually in comparison to untreated controls (herbicidal action in percent (%): 100% activity=the plants have died, 0% activity=like control plants). […] At the same time, inventive compounds leave Gramineae crops such as barley, wheat, rye, millet/sorghum, corn or rice virtually undamaged when applied post-emergence, even at high active compound dosages. In addition, some substances are also harmless to dicotyledonous crops such as soya, cotton, oilseed rape, sugar beet or potatoes. Some of the compounds according to the invention have high selectivity and are therefore suitable for controlling unwanted vegetation in agricultural crops by the post-emergence method. The data of Tables C and D below illustrate, in an exemplary manner, the […] herbicidal action of the compounds according to the invention, the herbicidal activity being stated in percent.
(§2) For comparison, the herbicidal activity of numerous compounds according to the invention was tested with the structurally closest compounds known from the documents WO 2011/035874, WO 2012/028579 and WO 2012/126932, by the pre- and post-emergence method.

Amaranthus retroflexus [1] = assay: Pre-emergence herbicidal action, AMARE; details: dosage 320 g/ha, scored visually after 3 weeks vs untreated controls
Source text: (§3) 1. Pre-Emergence Herbicidal Action Against Harmful Plants Seeds of monocotyledonous and dicotyledonous weed plants and crop plants are laid out in sandy loam soil in wood-fiber pots and covered with soil. The compounds of the invention, formulated in the form of wettable powders (WP) or as emulsion concentrates (EC), are then applied to the surface of the covering soil in the form of an aqueous suspension or emulsion at a water application rate equating to […], with addition of 0.2% wetting agent. After the treatment, the pots are placed in a greenhouse and kept under good growth conditions for the trial plants. The damage to the test plants is scored visually after a test period of 3 weeks by comparison with untreated controls (herbicidal activity in percent (%): 100% activity=the plants have died, 0% activity=like control plants).
as §2

Stellaria media [2] = assay: Post-emergence herbicidal action, STEME; details: 80 g/ha, Table D
Description: as §1, §2

Setaria viridis [3] = assay: Pre-emergence herbicidal action, SETVI; details: dosage 320 g/ha, scored visually after 3 weeks vs untreated controls
Source text: as §3, §2

Avena fatua [4] = assay: Pre-emergence herbicidal action, AVEFA; details: dosage 320 g/ha, scored visually after 3 weeks vs untreated controls
Source text: as §3, §2

Viola tricolor [5] = assay: Pre-emergence herbicidal action, VIOTR; details: dosage 320 g/ha, scored visually after 3 weeks vs untreated controls
Source text: as §3, §2

Cyperus serotinus = assay: Pre-emergence herbicidal action, CYPES; details: dosage 320 g/ha, scored visually after 3 weeks vs untreated controls
Source text: as §3, §2

Amaranthus retroflexus [6] = assay: Post-emergence herbicidal action, AMARE; details: 80 g/ha, Table D
Description: as §1, §2

Abutilon theophrasti [7] = assay: Pre-emergence herbicidal action, ABUTH; details: dosage 320 g/ha, scored visually after 3 weeks vs untreated controls
Source text: as §3, §2

Alopecurus myosuroides [8] = assay: Pre-emergence herbicidal action, ALOMY; details: dosage 320 g/ha, scored visually after 3 weeks vs untreated controls
Source text: as §3, §2

ECHCG = assay: Post-emergence herbicidal action, ECHCG; details: 80 g/ha, Table C
Description: as §1

Setaria viridis [9] = assay: Post-emergence herbicidal action, SETVI; details: 80 g/ha, Table C
Description: as §1, §2

Matricaria inodora = assay: Pre-emergence herbicidal action, MATIN; details: dosage 320 g/ha, scored visually after 3 weeks vs untreated controls
Source text: as §3, §2

Viola tricolor [10] = assay: Post-emergence herbicidal action, VIOTR; details: 80 g/ha, Table D
Description: as §1, §2

Stellaria media [11] = assay: Pre-emergence herbicidal action, STEME; details: dosage 320 g/ha, scored visually after 3 weeks vs untreated controls
Source text: as §3, §2

Abutilon theophrasti [12] = assay: Post-emergence herbicidal action, ABUTH; details: 80 g/ha, Table D
Description: as §1, §2

Avena fatua [13] = assay: Post-emergence herbicidal action, AVEFA; details: 80 g/ha, Table C
Description: as §1, §2

Alopecurus myosuroides [14] = assay: Post-emergence herbicidal action, ALOMY; details: 80 g/ha, Table C
Description: as §1, §2

Row | SMILES | Herbicidal activity PHBPU (Pharbitis purpureum) | herbicidal activity AMARE (Amaranthus retroflexus [1]) | Herbicidal activity STEME (Stellaria media [2]) | herbicidal activity SETVI (Setaria viridis [3]) | herbicidal activity AVEFA (Avena fatua [4]) | herbicidal activity VIOTR (Viola tricolor [5]) | herbicidal activity CYPES (Cyperus serotinus) | herbicidal activity AMARE (Amaranthus retroflexus [6]) | herbicidal activity ABUTH (Abutilon theophrasti [7]) | herbicidal activity ALOMY (Alopecurus myosuroides [8]) | Herbicidal activity ECHCG (ECHCG) | herbicidal activity SETVI (Setaria viridis [9]) | herbicidal activity MATIN (Matricaria inodora) | herbicidal activity VIOTR (Viola tricolor [10]) | Herbicidal activity STEME (Stellaria media [11]) | herbicidal activity ABUTH (Abutilon theophrasti [12]) | herbicidal activity AVEFA (Avena fatua [13]) | herbicidal activity ALOMY (Alopecurus myosuroides [14])
1 | CCS(=O)(=O)c1c(C(F)F)ccc(C(=O)Nc2nnnn2C)c1F [Example 1-42] | 100% | 100% | 100% | 100% | 100% | 100% | 100% | 100% | 100% | 100% | 80% | 90% | 100% | 100% | 100% | 90% | – | –
2 | CCSc1c(C(F)F)ccc(C(=O)Nc2nnnn2CC)c1C [Example 2-4] | 100% | 100% | 100% | 100% | 100% | 100% | 100% | – | 100% | 100% | 90% | 90% | 100% | 100% | 90% | – | 100% | 90%
3 | CCc1c(C(=O)Nc2nnnn2CC)ccc(C(F)F)c1[S+](C)[O-] (stereo not shown) [Example 2-14] | 90% | 100% | 100% | 100% | 100% | 100% | 100% | 100% | 100% | 100% | 100% | 100% | 100% | 100% | 100% | 100% | 90% | –
4 | CCn1nnnc1NC(=O)c1ccc(C(F)F)c(S(C)(=O)=O)c1F [Example 2-39] | 90% | 100% | 100% | 100% | 100% | 100% | 100% | 90% | 100% | – | 90% | 100% | 100% | 100% | 100% | 100% | 80% | –
5 | CCSc1c(C(F)F)ccc(C(=O)Nc2nnnn2CC)c1F [Example 2-40] | 90% | 100% | 100% | 100% | – | 100% | – | 100% | 100% | – | 100% | 100% | 100% | 100% | 100% | 100% | – | 80%
6 | CCn1nnnc1NC(=O)c1ccc(C(F)F)c(S(=O)(=O)CC)c1F [Example 2-42] | 90% | 100% | 100% | 100% | 90% | 100% | 90% | 90% | 100% | 90% | 100% | 100% | 100% | 100% | 90% | 100% | – | –
7 | CCn1nnnc1NC(=O)c1ccc(C(F)F)c([S+](C)[O-])c1Cl (stereo not shown) [Example 2-50] | 100% | 100% | 100% | 100% | 100% | 100% | 100% | 100% | 100% | 100% | 90% | 100% | 100% | 100% | 100% | 100% | 100% | –
8 | CCn1nnnc1NC(=O)c1ccc(C(F)F)c(S(C)(=O)=O)c1Cl [Example 2-51] | 90% | 100% | 100% | 100% | 100% | 100% | 90% | 100% | 100% | 90% | 90% | 90% | 100% | 100% | 90% | 100% | 90% | –
9 | Cc1c(C(=O)Nc2ncnn2C)ccc(C(F)F)c1[S+](C)[O-] (stereo not shown) [Example 4-2] | 90% | 100% | 90% | 100% | 80% | 90% | 80% | 100% | 100% | – | 100% | 80% | 100% | 100% | 100% | 90% | 80% | –
10 | CCS(=O)(=O)c1c(C(F)F)ccc(C(=O)Nc2ncnn2C)c1C [Example 4-6] | 80% | 100% | 100% | 90% | – | 100% | 100% | 100% | 100% | – | 100% | 100% | 100% | 100% | 90% | 100% | – | –
11 | CCc1c(C(=O)Nc2nnc(C)o2)ccc(C(F)F)c1SC [Example 7-11] | 90% | 100% | 90% | 100% | 90% | 100% | 90% | 90% | 100% | 80% | 90% | 90% | – | 100% | 80% | 90% | – | 90%
